# Measurements reported in article PMC8776894 (Communications Biology, 2022).
# Tested on: MCAO/R mice, brain homogenate
# Test: Biochemical kits, energy metabolism in brain (ATP, lactic acid)
# Format: in vivo, mouse
# Description: Mice were sacrificed under ether anesthesia 3 days after stroke. The brain was collected, weighed, and placed in a homogenizer for homogenization. Using 0.9% normal saline (NS) as a homogenization medium, a 10% tissue homogenate was prepared, centrifuged at 3500 rpm for 10 min, and the supernatant was taken. […] Kits for ATP, glutamic acid, glutathione, lactic acid, LPO, MDA, and SOD were purchased from Nanjingjiancheng Bioengineering Institute, and were measured as previously described for specification.
substance,measurement,setting,value
"Gly-Arg-Pro-Hyp-Gly-Phe-Ser-Pro-Phe-Arg-Ile-Asp [VK, Vespakinin-M]",LD content in brain vs vehicle,,lower LD content
same,ATP activity in brain vs vehicle,VK-treated groups,increased ATP activity
